# Measurements published in patent US11963996B2, “Method of treating knee pain” (ORTHOTROPHIX, Inc., priority 2018, dated 2024).
# “Also recorded” adds a separate entry of the source.
# Experiments:
# [1] = tested on: cultured neonatal mouse calvaria; conditions: cited from earlier work
# defects in human molar [2] = assay: Phase 2 study of dentin formation in defects in human molar; assay type: in vivo; conditions: both Phase 2 studies
# Description: Based on these safety and bone and dentin formation data, TPX-100 was tested in two Phase 2 studies for alveolar bone and dentin formation activities, respectively.
# rat long bone fracture = conditions: cited from earlier work
# [3] = tested on: subjects with bilateral patello-femoral knee osteoarthritis; assay: Phase 2 randomized double-blind placebo-controlled study of TPX-100: patient-reported outcomes (KOOS, WOMAC); assay type: in vivo, human; conditions: for KOOS ADL (knee function in activities of daily living) improvement over baseline / WOMAC Function subscale improvement: 200 mg intra-articular x4 once weekly, 6 and 12 months; for KOOS ADL (knee function in activities of daily living) improvement over baseline: Index vs Control (placebo) Knees
# Description: A multicenter, randomized double-blind, placebo-controlled study was designed to investigate the safety, tolerability, pharmacokinetics, and efficacy of TPX-100 administered in four weekly doses in subjects with bilateral patello-femoral knee osteoarthritis. The study was conducted under an open IND (investigational new drug application) at CDER (Center for Drug Evaluation and Research) of the U.S. FDA (The United States Food and Drug Administration) in compliance with GCP (Good Clinical Practice) and ICH (International Conference on Harmonization of Technical Requirements for Registration of Pharmaceuticals for Human Use) guidelines. Eighteen (18) orthopedic, rheumatologic and family practice centers in the U.S. participated in the study.
# The study was divided into Part A and Part B. The Part A was designed to evaluate safety of intra-articular (I.A.) administration of TPX-100 at different dosing levels (20, 50, 100, or 200 mg per injection in sequential cohorts) in the subjects with osteoarthritis of the knees and to select a dose for Part B. Part B was to evaluate safety and efficacy of the selected dose of TPX-100.
# Subjects in Part A were enrolled in sequential cohorts and randomized to receive 20, 50, 100 or 200 mg of TPX-100 in one knee (Index Knee) and identical placebo in the contralateral (Control) knee. Subjects, sites and sponsor and central MRI readers were blinded as to treatment assignment. A Safety Review Committee (SRC) evaluated safety in each dosing cohort. The SRC assessed safety and determined whether the next higher dosing regimen could be enrolled. All dosing cohorts in Part A were completed and analyzed with regard to safety prior to dose selection and initiation of Part B.
# Part A included four (4) intra-articular (I.A.) injections, one per week, in sequential dosing cohorts of 20, 50, 100 and 200 mg TPX-100 versus placebo. Six (6) subjects were enrolled in 20, 50, and 100 mg cohorts, respectively, and nine (9) subjects were enrolled in the 200 mg cohort.
# The 200 mg dose was selected for Part B based on safety review and the approval of the SRC. […] Per the Statistical Analysis Plan, these subjects were combined with the nine subjects in the 200 mg cohort of Part A for the efficacy analysis. In total, data from 93 subjects was analyzed for drug efficacy, each of whom received 4 once-weekly injections of TPX-100, 200 mg/dose, in the Index knee and identical placebo in the contralateral knee, as randomly assigned.
# In both Part A and Part B, subjects received 4, once-weekly doses of active drug in the knee randomized to active drug in the Index knee and placebo in the contralateral (Control) knee, delivered by the intra-articular route. No other doses of drug or placebo were administered. All subjects visited their respective clinical sites at 3, 6, and 12 months after the first dosing for their safety and efficacy assessments.
# On the first dosing day, the randomized subjects were assessed by physical examinations and vital signs. Further, they completed the Knee injury and Osteoarthritis Outcome Score (KOOS), which includes the Western Ontario and McMaster Universities Osteoarthritis Index (WOMAC). The KOOS questionnaire assesses knee-specific activities of daily living, sports and recreation, knee-related quality of life, other symptoms such as stiffness, and knee pain. The KOOS has been used extensively in longitudinal studies of knee osteoarthritis. After assessments were completed, subjects received one intra-articular injection in each knee, with each injection prepared from the vial(s) marked for that knee. One knee received TPX-100, and the contralateral knee received placebo with subject, site, and sponsor blinded to treatment assignment. Subjects were monitored for adverse events during the injections and for a few hours after the injections. Vital signs were also monitored after the injections. […]
# rat dental defect = conditions: in vivo; cited from earlier work
# [4] = tested on: full-thickness chondral defect; conditions: in vivo; cited from earlier work
# defects in human molar [5] = conditions: in vivo; cited from earlier work
# [6] = tested on: subjects with bilateral patello-femoral knee osteoarthritis; assay: Same study: MRI-based periarticular bone area and 3D bone shape (AAM, B Score); assay type: in vivo, human
# Text: The 3D bone shape change can be quantified using active appearance modelling (AAM). AAM enables encoding of the 3D shape and appearance of an object using multiple anchor points (“principal components”) on the surface of the object. These principal components describe computationally the specific 3D shape of the object. The use of AAM to represent femur, tibia, and patella shapes has been described in detail by Neogi, et. al. (Neogi 2013).
# The MRI images of each knee used in cartilage thickness measurement were used to measure surface area of the periarticular bone in lateral and medial femur, lateral and medial trochlear femur, lateral and medial tibia, as well as lateral and medial patella. Bone shape scores in femur, trochlear femur, tibia, and patella were also measured using the same MRI images.
# All KOOS subscale scores, WOMAC Total score and subscale scores, MRI-based patello-femoral and tibiofemoral cartilage thickness, and MRI-based periarticular bone area and 3D bone shape were analyzed.
# MRI images were provided to central readers cartilage and periarticular bone measures. Central readers were blind as to treatment assignment.
# Bone area and 3D shape of periarticular bone were analyzed using AAM software developed by iMorphics (www.imorphics.com) specifically for assessing these parameters in the osteoarthritic knee.
# Statistical analyses were carried out using a two-sided paired t-test at the 5% level of significance. The outcome variables were the differences of the change of the score of each subscale of KOOS, change of cartilage thickness, periarticular bone area, and 3D bone shape score (“B Score”) change from baseline to 6 and 12 months in the treated knee (“Index Knee”) compared with the placebo-exposed knee (“Control Knee”).
# Change in periarticular bone area and 3D bone shape as measured by MRI was also compared between Index and Control Knee groups. It should be noted that there were eight subjects whose MRI images were of insufficient quality and were excluded from bone area and shape analyses. Therefore, each evaluable treatment arm consisted of 85 knees.
# [7] = 200 mg IA x4, Index vs Control Knees, 12 months
substance,measurement,setting,value
"TPX-100: synthetic peptide consisting of 23 amino acids, TDLQERGDNDISPFSGDGQPFKD, derived from human Matrix Extracellular Phosphoglycoprotein (MEPE)",Bone formation activity in calvaria culture,[1],thickening of cultured neonatal mouse calvaria
same,"Tolerability in two Phase 2 studies (alveolar bone, dentin)",defects in human molar [2],well tolerated in both studies
same,Tolerability in in vivo bone formation and dentin formation studies,rat long bone fracture; rat bone formation and dentin formation studies,well tolerated
same,Bone fracture healing,rat long bone fracture; subcutaneous injection,acceleration of bone fracture healing
same,KOOS Sports and Recreation subscale improvement,"[3]; 200 mg IA x4, Index vs Control Knees, 6 months",clinically meaningful and statistically significant improvement
same,KOOS Knee-related QOL subscale improvement,[3]; [7],clinically meaningful and statistically significant improvement
same,KOOS Pain subscale improvement,[3]; [7],"only a statistical trend (p<0.09) of improvement; also recorded: clinically meaningful improvement in Index Knees as compared to Control Knees at 12 months, with a trend towards statistical significance (p<0.09)"
same,Pain Frequency (KOOS Pain question 1),[3]; [7],statistically significant improvement in Index Knees as compared to Control Knees (p<0.05); also recorded: significantly reduced (p<0.05)
same,Pain going up or down stairs (KOOS Pain question),[3]; [7],statistically significant improvement in Index Knees as compared to Control Knees (p<0.05); also recorded: significantly improved (p<0.05)
same,WOMAC Pain domain improvement,[3]; [7],"clinically meaningful improvement in Index Knees at 12 months compared with Control knees, although the difference did not reach statistical significance"
same,KOOS ADL (knee function in activities of daily living) improvement over baseline,[3],clinically meaningful and statistically significant (p<0.05) improvements
same,KOOS ADL (knee function in activities of daily living) improvement over baseline,[3]; listed as peptide of SEQ ID No. 1,clinically meaningful and statistically significant (p=0.008) improvement
same,WOMAC Function subscale improvement,[3]; Index vs Control Knees,same robust improvement in Index Knees as compared to Control Knees
same,WOMAC Function subscale improvement,"[3]; Index vs Control Knees, listed as peptide of SEQ ID No. 1",clinically meaningful and statistically significant (p=0.008) improvement
same,WOMAC Total score improvement,"[3]; Index vs Control Knees, 6 or 12 months, or both",significant improvements in favor of Index knees
same,Decrease in use of analgesics by participants,"[3]; overall, over the 12-month study period",62.5%
same,"Pain frequency in responders, baseline to 12 months","[3]; responders to treatment, 12 months",decreased from daily pain at baseline to semi-monthly pain at 12 months
same,"Pain frequency in responders, baseline to 12 months","[3]; responders to treatment, 12 months, listed as peptide of SEQ ID No. 1",semi-weekly
same,Improvement of pain frequency score in responder group,"[3]; responders to treatment, baseline score 3 (daily), at 12 months",approximately 1.5 points
same,Dentin formation,rat dental defect,promote dentin formation
same,Safety and tolerability in goats,[4],safe and well-tolerated
same,Dentin formation in defects in human molar,defects in human molar [5],reparative dentin formation
same,Mean bone shape change rate,"[6]; Index Knees, first 6 months",0.03
same,"Periarticular bone area change, lateral femur, lateral patella and medial patella","[6]; Index Knees, first 6 months",nearly zero in all regions
same,3D periarticular bone shape change of femur (B score),"[6]; Index vs Control Knees, 6 and 12 months (p=0.005 and 0.007)",statistically significant decrease in shape change compared to Control Knees; also recorded: statistically significant (p<0.05) difference in favor of Index Knees
same,"Periarticular bone area increase, medial femur","[6]; Index vs Control Knees, 6 months","less periarticular bone area increase as compared to Control Knees at 6 months, with a trend toward statistical significance (p=0.08); also recorded: less pathological bone area increase as compared to Control Knee at 6 months, with a trend toward statistical significance (p=0.08)"
same,"Periarticular bone area increase, lateral femur, lateral and medial patella","[6]; Index vs Control Knees, 12 months",slower increase at 12 months compared with Control Knees
same,3D periarticular bone shape changes in tibia and patella,"[6]; Index vs Control Knees, no statistically significant difference",slower changes in Index Knees as compared to Control Knees
same,3D bone shape change of patella in pain frequency responder group,"[6]; responders, through 12 months",remained approximately zero through 12 months; also recorded: eventually no change in the 3D bone shape in patella
